Source: US10953040B2, “Methods of treating bacterial infections with penam β-lactam antibiotics and branched poly(ethylenimine)” (priority 2015, dated 2021)
≈ marks a conversion by molar mass, not a printed value. Where “and” joins values, the source holds several entries; their conditions need not be identical. Equal values may be shown once. Entries after “also recorded” stand apart in the source; their conditions may differ. Read-outs that look alike come from different tables or passages of the source.

Tests used:
Format in all cases: cell-based
[1] = tested on: methicillin-resistant Staphylococcus aureus (MRSA) strain ATCC 700787; assay: microbe, parasite or virus in culture; settings: for MIC / concentration inhibiting MRSA growth: FIG. 6-8; for MIC: Staphylococcus aureus; for synergy with BPEI / change of efficacy against MRSA on addition of BPEI: BPEI 2.65 μg/mL, FIG. 6-10
Procedure: (§1) A stock culture was diluted in tryptic soy broth (TSB) and delivered into pre-sterilized 96-well plates. Stock solutions of BPEI and antibiotics, prepared in DMSO, were added to each well of a 96-well plate (final DMSO concentration was 1%), followed by inoculation with MRSA in TSB. Optical density measurements were performed with a Tecan Infinite M200 plate reader and an initial OD600 value recorded. The plates were incubated for 20 h in a humidified incubator at 37° C. Plates were removed, orbitally shaken, and a final OD600 value recorded. […] to obtain the change in OD600 (recorded in the figures as ΔOD600). Antimicrobial activity was determined by the change in optical density. Duplicate measurements were performed and the average reported.
(§2) Using the average ΔOD600 values, separate MIC values for BPEI and ampicillin were determined by the lowest concentration of each that inhibited growth.

[2] = tested on: methicillin-resistant Staphylococcus aureus (MRSA) strain ATCC 700787; assay: MRSA checkerboard growth inhibition assay with FIC; settings: for MIC: Staphylococcus aureus; for interaction with BPEI by FIC values (synergy / additive): OD600<0.05 = growth inhibition; for OD600 of growth media: 20 hours
From the text: The fractional inhibitory concentration (FIC) as used herein is a measure of the interaction of two agents, such as an antibiotic and a BPEI compound, used together, and is an indicator of synergy. FIC uses a value of the MIC of each of the independent agents, e.g., MICA and MICB for agents A and B, for a particular bacterium as the basis, then takes the concentration of each component in a mixture where an MIC(A in B) is observed. For example, for a two component system of agents A and B, MIC(A in B) is the concentration of A in the compound mixture and MIC(B in A) is the concentration of B in the compound mixture. The FIC is defined as follows: FICA=(MIC(A in B)/MICA) Eqn. 1 FICB=(MIC(B in A)/MICB) Eqn. 2 FICA+B=FICA+FICB Eqn. 3
Synergism (i.e., the two compounds together provide a synergistic effect) is defined herein as occurring when FICA+B≤0.5. The mixture is defined as having an additive effect when […]. When, FICA+B>4 the mixture is considered to have an antagonistic interaction. An example of how FIC is used to determine synergism is shown in U.S. Pat. No. 8,338,476, the entirety of which is incorporated herein by reference in its entirety.
as §1, §2

[3] = tested on: Escherichia coli ATCC 11775; assay: E. coli growth inhibition assay (ΔOD600 after 20 h)
Procedure: (§3) The bacteria used in this work were obtained from the American Type Culture Collection (methicillin-resistant Staphylococcus aureus (MRSA) strain ATCC 700787, Staphylococcus aureus ATCC 25923, Escherichia coli ATCC 11775, Bacillus subtilis (Ehrenberg) Cohn ATCC 23059). Chemicals from Sigma-Aldrich (e.g., DMSO, ampicillin, methicillin, vancomycin, chloramphenicol, and novobiocin) were used as purchased.
as §1

[4] = tested on: Staphylococcus aureus ATCC 25923; assay: non-resistant S. aureus growth inhibition assay (ΔOD600 after 20 h); settings: ATCC25923, ampicillin by itself, FIG. 14
Procedure: as §3, §1

[5] = with BPEI 2.65 μg/mL (2.7 μg/mL)
[6] = without BPEI, checkerboard FIG. 18-21, read-out: MIC

## CC1(C)S[C@@H]2[C@H](NC(=O)[C@H](N)c3ccc(O)cc3)C(=O)N2[C@H]1C(=O)O [amoxicillin]
[1]; antibiotic without BPEI
  MIC / concentration inhibiting MRSA growth: 58 µg/mL (≈ 159 µM)
[1]; [5]
  MIC / concentration inhibiting MRSA growth: 30 µg/mL and 29 µg/mL
[2]; [6]
  MIC: > 32 µg/mL
[2]; checkerboard FIG. 18-21
  interaction with BPEI by FIC values (synergy / additive): synergistic activity

## CC1(C)S[C@@H]2[C@H](NC(=O)[C@H](N)c3ccccc3)C(=O)N2[C@H]1C(=O)O [ampicillin]
[1]; read-out: MIC for ampicillin, with BPEI 2.7 μg/mL, FIG. 2
  MIC: 12 to 25 µg/mL (≈ 34.3 to 71.5 µM)
[1]; read-out: MIC for ampicillin, with BPEI 26 μg/mL, FIG. 5
  MIC: ~1.2 µg/mL (≈ 3.43 µM)
[1]; read-out: MIC for ampicillin, without BPEI, FIG. 2
  MIC: > 50 µg/mL
[1]; read-out: MIC for ampicillin, without BPEI, FIG. 3 (second data set)
  MIC: 50 µg/mL (≈ 143 µM)
[3]; ATCC11775, ampicillin alone, FIG. 12
  MIC: 3.7 µg/mL (≈ 10.6 µM)
[3]; ATCC11775, with BPEI 2.65 μg/mL, FIG. 12, read-out: MIC for ampicillin
  MIC: 3.7 µg/mL (≈ 10.6 µM)
[4]
  MIC: ~0.05 µg/mL (≈ 0.143 µM)
[2]; with BPEI 8 μg/mL, Table 1, read-out: ampicillin MIC
  MIC: 8 µg/mL
[2]; with low-Mw BPEI 16 μg/mL, Table 1, read-out: ampicillin MIC
  MIC: 1 µg/mL
[2]; without BPEI, Table 1, read-out: ampicillin MIC
  MIC: 32 µg/mL
[2]; [6]
  MIC: > 32 µg/mL
[2]; ampicillin 0.125 + BPEI 0 μg/mL
  OD600 of growth media: 0.4361
[2]; ampicillin 0.250 + BPEI 0 μg/mL
  OD600 of growth media: 0.4282
[2]; ampicillin 0.500 + BPEI 0 μg/mL
  OD600 of growth media: 0.4342
[2]; ampicillin 1 + BPEI 0 μg/mL
  OD600 of growth media: 0.4289
[2]; ampicillin 2 + BPEI 0 μg/mL
  OD600 of growth media: 0.4294
[2]; ampicillin 4 + BPEI 0 μg/mL
  OD600 of growth media: 0.4375
[2]; ampicillin 8 + BPEI 0 μg/mL
  OD600 of growth media: 0.4344
[2]; ampicillin 16 + BPEI 0 μg/mL
  OD600 of growth media: 0.3287
[2]; ampicillin 32 + BPEI 0 μg/mL
  OD600 of growth media: 0.0003
[2]; ampicillin 64 + BPEI 0 μg/mL
  OD600 of growth media: 0.0014
[2]; checkerboard FIG. 18-21
  interaction with BPEI by FIC values (synergy / additive): synergistic activity; also recorded: Synergy
[2]; with low-Mw BPEI 16 μg/mL
  factor by which the ampicillin MIC is lowered: 32 ×

## O=C(N[C@H](CO)[C@H](O)c1ccc([N+](=O)[O-])cc1)C(Cl)Cl [chloramphenicol]
[1]
  synergy with BPEI / change of efficacy against MRSA on addition of BPEI: large synergy; also recorded: dramatic synergistic effect
[1]; antibiotic without BPEI
  MIC / concentration inhibiting MRSA growth: 50 µg/mL (≈ 155 µM)
[1]; on addition of 2.7 μg/mL BPEI, FIG. 8
  decrease in the MIC: 10 fold
[1]; [5]
  MIC / concentration inhibiting MRSA growth: 5 µg/mL (≈ 15.5 µM)

## COc1cccc(OC)c1C(=O)N[C@@H]1C(=O)N2[C@@H]1SC(C)(C)[C@@H]2C(=O)O [methicillin]
[1]; antibiotic without BPEI
  MIC / concentration inhibiting MRSA growth: > 60 µg/mL
[1]; [5]
  MIC / concentration inhibiting MRSA growth: 30 µg/mL (≈ 78.9 µM)
[2]; [6]
  MIC: > 32 µg/mL
[2]; checkerboard FIG. 18-21
  interaction with BPEI by FIC values (synergy / additive): Synergy occurred

## CO[C@@H]1[C@@H](OC(N)=O)[C@@H](O)[C@H](Oc2ccc3c(O)c(NC(=O)c4ccc(O)c(CC=C(C)C)c4)c(=O)oc3c2C)OC1(C)C [novobiocin]
[1]
  synergy with BPEI / change of efficacy against MRSA on addition of BPEI: did not show any synergy; also recorded: not substantially altered

## CN[C@H](CC(C)C)C(=O)N[C@H]1C(=O)N[C@@H](CC(N)=O)C(=O)N[C@H]2C(=O)N[C@H]3C(=O)N[C@H](C(=O)N[C@H](C(=O)O)c4cc(O)cc(O)c4-c4cc3ccc4O)[C@H](O)c3ccc(c(Cl)c3)Oc3cc2cc(c3O[C@@H]2O[C@H](CO)[C@@H](O)[C@H](O)[C@H]2O[C@H]2C[C@](C)(N)[C@H](O)[C@H](C)O2)Oc2ccc(cc2Cl)[C@H]1O [vancomycin]
[1]
  synergy with BPEI / change of efficacy against MRSA on addition of BPEI: did not show any synergy; also recorded: does not change
[2]
  MIC: 4 µg/mL
[2]; checkerboard FIG. 18-21
  interaction with BPEI by FIC values (synergy / additive): additive
